The source of these data is patent US8183254B2, “Inhibitors of JNK” (Roche Palo Alto LLC, priority 2008, dated 2012).

One data set deals with Human JNK1α1 (Homo sapiens, UniProt P45983). Kind of data set: JNK assay in vitro (phosphorylation of GST-ATF2 with [γ-33P] ATP), JNK1. The following applies: Km concentrations of ATP and substrate. The class given is biochemical. On the procedure:
(§1) JNK activity was measured by phosphorylation of GST-ATF2 (19-96) with [γ-^33P] ATP. […] Human JNK2α2 assay contains 1 nM enzyme, 1 μM ATF2, 8 μM ATP with 1 uCi [γ-^33P] ATP. Human JNK1α1 assay contains 2 nM enzyme, 1 μM ATF2, 6 μM ATP with 1 μCi [γ-^33P] ATP. Human JNK3 Upstate Biotech #14-501M) assay contains 2 nM enzyme, 1 μM ATF2, 4 μM ATP with 1 μCi [γ-^33P] ATP. The enzyme assay was carried out in the presence or absence of several compound concentrations. JNK and compound were pre-incubated for 10 min., followed by initiation of the enzymatic reaction by adding ATP and the substrate. The reaction mixture was incubated at 30° C. for 30 min. At the end of incubation, the reaction was terminated by transferring 25 μl of the reaction mixture to 150 μl of 10% glutathione Sepharose® slurry (Amersham # 27-4574-01) containing 135 mM EDTA. The reaction product was captured on the affinity resin, and washed on a filtration plate (Millipore, MABVNOB50) with phosphate buffered saline for six times to remove free radionucleotide. The incorporation of ^33P into ATF2 was quantified on a microplate scintillation counter (Packard Topcount). Compound inhibition potency on JNK was measured by IC50 value generated from ten concentration inhibition curves fitted into the 3-parameter model: % inhibition=Maximum/(1+(IC50/[Inhibitor])^slope). Data were analyzed on Microsoft Excel for parameter estimation.

The next data set deals with Human JNK2α2 (Homo sapiens, UniProt P45984). Nature of the data set: JNK assay in vitro (phosphorylation of GST-ATF2 with [γ-33P] ATP), JNK2. The class given is biochemical. The following applies: Km concentrations of ATP and substrate. The protocol:
as §1

Data set [1] relates to TNFα-induced IL-6 production. Kind of data set: Rat in vivo TNFα-induced IL-6 production assay. The following applies: oral gavage 30 min prior to TNF-α challenge, plasma IL-6 90 min after challenge, female Wistar-Han rats. The protocol:
Female Wistar-Han rats procured from Charles River Laboratories were allowed to acclimate for one week prior to use and achieve an approximate body weight of 101-130 g. Rats were administered test compound (N=8 per compound) via oral gavage 30 min prior to an intraperitoneal challenge of 0.5 μg recombinant rat TNF-α (Biosource). Blood was collected via cardiocentesis 90 min after TNF-α challenge. Plasma was prepared using lithium heparin separation tubes (BD microtainer) and frozen at −80° C. until analyzed. IL-6 levels were determined using a rat specific IL-6 ELISA kit (Biosource). The percent inhibition and ED50 values (calculated as the dose of compound at which […] is 50% of the control value) were determined.

Chain of Human JNK2α2 (P45984 whole entry): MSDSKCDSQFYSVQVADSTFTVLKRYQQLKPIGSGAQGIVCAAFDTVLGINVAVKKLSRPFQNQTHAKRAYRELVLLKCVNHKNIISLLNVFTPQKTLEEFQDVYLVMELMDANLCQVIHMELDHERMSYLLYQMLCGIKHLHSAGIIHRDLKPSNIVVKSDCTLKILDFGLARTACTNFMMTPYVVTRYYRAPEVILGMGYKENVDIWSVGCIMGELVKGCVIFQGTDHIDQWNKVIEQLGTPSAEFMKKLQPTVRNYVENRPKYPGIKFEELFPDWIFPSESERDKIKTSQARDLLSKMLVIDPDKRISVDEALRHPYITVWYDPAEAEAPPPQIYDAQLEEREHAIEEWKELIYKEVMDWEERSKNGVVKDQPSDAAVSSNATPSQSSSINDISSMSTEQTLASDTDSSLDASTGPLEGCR
Chain of Human JNK1α1 (P45983 1-384 isoform P45983-2): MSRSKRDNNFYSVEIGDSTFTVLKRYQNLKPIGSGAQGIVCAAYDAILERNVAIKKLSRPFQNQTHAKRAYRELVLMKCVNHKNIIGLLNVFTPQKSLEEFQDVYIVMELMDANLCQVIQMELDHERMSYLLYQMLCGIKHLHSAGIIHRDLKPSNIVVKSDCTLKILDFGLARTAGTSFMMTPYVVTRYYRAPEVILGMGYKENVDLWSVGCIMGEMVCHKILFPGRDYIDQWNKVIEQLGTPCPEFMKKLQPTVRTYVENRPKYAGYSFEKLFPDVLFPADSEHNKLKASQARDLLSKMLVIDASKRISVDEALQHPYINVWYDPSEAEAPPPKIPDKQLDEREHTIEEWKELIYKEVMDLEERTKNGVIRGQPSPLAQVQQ

As for `CN[C@H](C(=O)OC1CCN(C(=O)[C@H]2CC[C@H](Nc3nccc(-n4ccc5c(OCCCS(C)(=O)=O)cccc54)n3)CC2)CC1)C(C)C` (stereo in doubt) [Compound I-15, (R)-3-Methyl-2-methylamino-butyric acid 1-(4-{4-[4-(3-methanesulfonyl-propoxy)-indol-1-yl]-pyrimidin-2-ylamino}-cyclohexanecarbonyl)-piperidin-4-yl ester], the melting point lay within 105 to 107 °C. Moreover, on Human JNK1α1, the IC50 turned out to be 10 nM. The compound further registered an IC50 against Human JNK2α2 of 40.5 nM.
`C[C@H](N)C(=O)OC1CCN(C(=O)[C@H]2CC[C@H](Nc3nccc(-n4ccc5c(OCCCS(C)(=O)=O)cccc54)n3)CC2)CC1` [Compound I-1] registered a melting point of 202.2 to 203.2 °C. This compound also registered an IC50 against Human JNK1α1 of 9.4 nM. For the same compound, the IC50 against Human JNK2α2 came out at 40.8 nM.
The like results for `CC(C)(N)C(=O)OC1CCN(C(=O)[C@H]2CC[C@H](Nc3nccc(-n4ccc5c(OCCCS(C)(=O)=O)cccc54)n3)CC2)CC1` [Compound I-2, 2-Amino-2-methyl-propionic acid 1-(4-{4-[4-(3-methanesulfonyl-propoxy)-indol-1-yl]-pyrimidin-2-ylamino}-cyclohexanecarbonyl)-piperidin-4-yl ester] were, in that order, 219 to 220 °C, 6.8 nM and 34.7 nM.
Consider `CC[C@H](C)[C@H](N)C(=O)OC1CCN(C(=O)[C@H]2CC[C@H](Nc3nccc(-n4ccc5c(OCCCS(C)(=O)=O)cccc54)n3)CC2)CC1` [Compound I-4, (2S,3S)-2-Amino-3-methyl-pentanoic acid 1-(4-{4-[4-(3-methanesulfonyl-propoxy)-indol-1-yl]-pyrimidin-2-ylamino}-cyclohexanecarbonyl)-piperidin-4-yl ester], for which the melting point was 137 to 138 °C. Moreover, at Human JNK1α1, the IC50 is 11.6 nM. On Human JNK2α2, this compound came in with an IC50 of 51.9 nM.
Compound `CS(=O)(=O)CCCOc1cccc2c1ccn2-c1ccnc(N[C@H]2CC[C@H](C(=O)N3CCC(OC(=O)[C@@H]4CCCN4)CC3)CC2)n1` [Compound I-5, (S)-Pyrrolidine-2-carboxylic acid 1-(4-{4-[4-(3-methanesulfonyl-propoxy)-indol-1-yl]-pyrimidin-2-ylamino}-cyclohexanecarbonyl)-piperidin-4-yl ester] came in with a melting point of 147 to 148 °C. This compound had an IC50 at Human JNK1α1 of 7.4 nM. Inhibition against Human JNK2α2 was half-maximal at 27.4 nM (IC50).
In turn, `CC(C)[C@H](N)C(=O)OC1CCN(C(=O)[C@H]2CC[C@H](Nc3nccc(-n4ccc5c(OCCCS(C)(=O)=O)cccc54)n3)CC2)CC1` [Compound I-6, (S)-2-Amino-3-methyl-butyric acid 1-(4-{4-[4-(3-methanesulfonyl-propoxy)-indol-1-yl]-pyrimidin-2-ylamino}-cyclohexanecarbonyl)-piperidin-4-yl ester] yielded a melting point of 163 to 164 °C. The compound also had an IC50 against Human JNK1α1 of 10.5 nM. At Human JNK2α2, this compound returned an IC50 of 40.2 nM.
In turn, `CN1CCC[C@@H]1C(=O)OC1CCN(C(=O)[C@H]2CC[C@H](Nc3nccc(-n4ccc5c(OCCCS(C)(=O)=O)cccc54)n3)CC2)CC1` [Compound I-7, (R)-1-Methyl-pyrrolidine-2-carboxylic acid 1-(4-{4-[4-(3-methanesulfonyl-propoxy)-indol-1-yl]-pyrimidin-2-ylamino}-cyclohexanecarbonyl)-piperidin-4-yl ester] came in with a melting point of 127 to 128 °C. At Human JNK1α1, this compound came in with an IC50 of 15 nM. Further, 55 nM corresponded to half-maximal inhibition on Human JNK2α2 (IC50).
In the case of `CN(C)CC(=O)OC1CCN(C(=O)[C@H]2CC[C@H](Nc3nccc(-n4ccc5c(OCCCS(C)(=O)=O)cccc54)n3)CC2)CC1` [Compound I-8, Dimethylamino-acid acid 1-(4-{4-[4-(3-methanesulfonyl-propoxy)-indol-1-yl]-pyrimidin-2-ylamino}-cyclohexanecarbonyl)-piperidin-4-yl ester], the melting point lay in the range of 177 to 178 °C. The compound also returned an IC50 against Human JNK1α1 of 23.8 nM. Besides, inhibition against Human JNK2α2 was half-maximal at 67.6 nM (IC50). Moreover, the “IL-6 Inhibition” value in data set [1] (dose 10 mg/Kg) turned out to be 28.9%. In addition, the “IL-6 Inhibition” value in data set [1] (dose 30 mg/Kg) amounted to 40.2%.
The like results for `CN[C@@H](C)C(=O)OC1CCN(C(=O)[C@H]2CC[C@H](Nc3nccc(-n4ccc5c(OCCCS(C)(=O)=O)cccc54)n3)CC2)CC1` [Compound I-9, (S)-2-methylamino-propionic acid 1-(4-{4-[4-(3-methanesulfonyl-propoxy)-indol-1-yl]-pyrimidin-2-ylamino}-cyclohexanecarbonyl)-piperidin-4-yl ester] were, in that order, 182 to 183 °C, 15.3 nM, 50.9 nM, 28.1% and 49.1%.
In turn, `CC[C@H](C)[C@@H](N)C(=O)OC1CCN(C(=O)[C@H]2CC[C@H](Nc3nccc(-n4ccc5c(OCCCS(C)(=O)=O)cccc54)n3)CC2)CC1` [Compound I-10, (2R,3S)-2-Amino-3-methyl-pentanoic acid 1-(4-{4-[4-(3-methanesulfonyl-propoxy)-indol-1-yl]-pyrimidin-2-ylamino}-cyclohexanecarbonyl)-piperidin-4-yl ester] came in with a melting point of 150 to 200 °C.
`CC[C@@H](C)[C@@H](N)C(=O)OC1CCN(C(=O)[C@H]2CC[C@H](Nc3nccc(-n4ccc5c(OCCCS(C)(=O)=O)cccc54)n3)CC2)CC1` [Compound I-11, (2R,3R)-2-Amino-3-methyl-pentanoic acid 1-(4-{4-[4-(3-methanesulfonyl-propoxy)-indol-1-yl]-pyrimidin-2-ylamino}-cyclohexanecarbonyl)-piperidin-4-yl ester] returned a melting point of 147 to 148 °C. Besides, the IC50 at Human JNK1α1 stood at 34.7 nM. Moreover, the IC50 against Human JNK2α2 was determined as 115 nM.
Consider `COP(=O)(OC)OC1CCN(C(=O)[C@H]2CC[C@H](Nc3nccc(-n4ccc5c(OCCCS(C)(=O)=O)cccc54)n3)CC2)CC1` [Compound I-12, Phosphoric acid 1-(4-{4-[4-(3-methanesulfonyl-propoxy)-indol-1-yl]-pyrimidin-2-ylamino}-cyclohexanecarbonyl)-piperidin-4-yl ester dimethyl ester], for which the melting point was in the range of 135 to 136 °C. Also, the IC50 against Human JNK1α1 worked out at 48.1 nM. On Human JNK2α2, this compound came in with an IC50 of 162 nM.
On to `CS(=O)(=O)CCCOc1cccc2c1ccn2-c1ccnc(N[C@H]2CC[C@H](C(=O)N3CCC(OP(=O)(O)O)CC3)CC2)n1` [Compound I-13], for which the melting point fell in the range of 201.3 to 208.8 °C. Moreover, half-maximal inhibition against Human JNK1α1 (IC50) required 10.8 nM. Also, at Human JNK2α2, inhibition was half-maximal at 56.8 nM (IC50).
Compound `CS(=O)(=O)CCCOc1cccc2c1ccn2-c1ccnc(N[C@H]2CC[C@H](C(=O)N3CCC(OC(=O)CCC(=O)O)CC3)CC2)n1` [Compound I-14] yielded a melting point of 214.2 to 217.7 °C. It took 27.9 nM to reach half-maximal inhibition on Human JNK1α1 (IC50). The compound also had an IC50 against Human JNK2α2 of 67.9 nM.
Compound `CN1CCC[C@H]1C(=O)OC1CCN(C(=O)[C@H]2CC[C@H](Nc3nccc(-n4ccc5c(OCCCS(C)(=O)=O)cccc54)n3)CC2)CC1` [Compound I-27, (S)-1-Methyl-pyrrolidine-2-carboxylic acid 1-(4-{4-[4-(3-methanesulfonyl-propoxy)-indol-1-yl]-pyrimidin-2-ylamino}-cyclohexanecarbonyl)-piperidin-4-yl ester] had a melting point of 127 to 128 °C. For the same compound, the IC50 against Human JNK1α1 was 17.6 nM. The compound also displayed an IC50 on Human JNK2α2 of 57.2 nM. Further, the “IL-6 Inhibition” value in data set [1] (dose 10 mg/Kg) was found to be 35.8%. Further, in data set [1] (dose 30 mg/Kg), the “IL-6 Inhibition” value stood at 50.7%.

One may read the IC50 as the concentration that gives 50% inhibition. Read a high IC50 as a need for much substance. Broadly, the melting point is the temperature, or range, at which the solid turns liquid.
